# From ChEMBL document CHEMBL1154822, “Synthesis and antiproliferative activity of 7-azaindirubin-3'-oxime, a 7-aza isostere of the natural indirubin pharmacophore” (J Nat Prod, 2009)
# Experiments:
# MCF7 [1] = test: Cytotoxicity against human MCF7 cells assessed as cell growth at 1 mM after 1 to 11 days by MTT assay; assay type: functional; conditions: read-out: Activity
# A549 [2] = test: Cytotoxicity against human A549 cells assessed as cell growth at 100 uM after 1 to 11 days by MTT assay; assay type: functional; conditions: read-out: Activity
# MDA-MB-468 = test: Cytotoxicity against human MDA-MB-468 cells assessed as cell growth at 1 mM after 1 to 11 days by MTT assay; assay type: functional; conditions: read-out: Activity
# OVCAR-4 = test: Cytotoxicity against human OVCAR4 cells assessed as cell growth at 1 mM after 1 to 11 days by MTT assay; assay type: functional; conditions: read-out: Activity
# TK-10 [3] = test: Cytotoxicity against human TK10 cells assessed as cell growth at 10 uM after 1 to 11 days by MTT assay; assay type: functional; conditions: read-out: Activity
# [4] = molecular target: Glycogen synthase kinase-3 beta (Homo sapiens) (UniProt P49841); test: Inhibition of human GSK3-beta at 3 uM after 40 mins by scintillation counting
# Glycogen synthase kinase-3 beta (Homo sapiens), sequence (P49841 whole entry, looked up): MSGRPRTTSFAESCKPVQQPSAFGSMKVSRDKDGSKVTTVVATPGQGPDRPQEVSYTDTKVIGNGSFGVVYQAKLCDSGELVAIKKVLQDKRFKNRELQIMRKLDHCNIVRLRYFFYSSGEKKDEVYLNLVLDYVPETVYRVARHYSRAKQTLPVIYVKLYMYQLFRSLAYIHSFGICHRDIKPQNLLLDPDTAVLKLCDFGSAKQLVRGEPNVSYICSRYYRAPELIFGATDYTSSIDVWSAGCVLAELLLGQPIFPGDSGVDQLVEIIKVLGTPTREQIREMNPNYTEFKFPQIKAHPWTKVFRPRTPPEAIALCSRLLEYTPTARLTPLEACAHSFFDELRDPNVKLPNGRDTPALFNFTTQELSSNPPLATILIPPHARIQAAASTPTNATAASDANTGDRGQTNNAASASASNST
# SN12C [5] = test: Cytotoxicity against human SN12C cells assessed as cell growth at 10 uM after 1 to 11 days by MTT assay; assay type: functional; conditions: read-out: Activity
# NCI-H23 = test: Cytotoxicity against human NCI-H23 cells assessed as cell growth at 1 uM after 1 to 11 days by MTT assay; assay type: functional; conditions: read-out: Activity
# IGROV-1 = test: Cytotoxicity against human IGROV1 cells assessed as cell growth at 0.1 uM after 1 to 11 days by MTT assay; assay type: functional; conditions: read-out: Activity
# A498 [6] = test: Cytotoxicity against human A498 cells assessed as cell growth at 1 mM after 1 to 11 days by MTT assay; assay type: functional; conditions: read-out: Activity
# OVCAR-8 = test: Cytotoxicity against human OVCAR8 cells assessed as cell growth at 0.1 uM after 1 to 11 days by MTT assay; assay type: functional; conditions: read-out: Activity
# MCF7 [7] = test: Cytotoxicity against human MCF7 cells assessed as cell growth at 0.1 uM after 1 to 11 days by MTT assay; assay type: functional; conditions: read-out: Activity
# OVCAR-3 = test: Cytotoxicity against human OVCAR-3 cells assessed as cell growth at 10 uM after 1 to 11 days by MTT assay; assay type: functional; conditions: read-out: Activity
# A549 [8] = test: Cytotoxicity against human A549 cells assessed as cell growth at 1 mM after 1 to 11 days by MTT assay; assay type: functional; conditions: read-out: Activity
# SNB-19 = test: Cytotoxicity against human SNB19 cells assessed as cell growth at 10 uM after 1 to 11 days by MTT assay; assay type: functional; conditions: read-out: Activity
# A549 [9] = test: Cytotoxicity against human A549 cells assessed as cell growth at 1 uM after 1 to 11 days by MTT assay; assay type: functional; conditions: read-out: Activity
# NCI-H522 [10] = test: Cytotoxicity against human NCI-H522 cells assessed as cell growth at 1 mM after 1 to 11 days by MTT assay; assay type: functional; conditions: read-out: Activity
# A498 [11] = test: Cytotoxicity against human A498 cells assessed as cell growth at 10 uM after 1 to 11 days by MTT assay; assay type: functional; conditions: read-out: Activity
# HT-29 = test: Cytotoxicity against human HT-29 cells assessed as cell growth at 0.1 uM after 1 to 11 days by MTT assay; assay type: functional; conditions: read-out: Activity
# NCI-H226 = test: Cytotoxicity against human NCI-H226 cells assessed as cell growth at 1 mM after 1 to 11 days by MTT assay; assay type: functional; conditions: read-out: Activity
# SK-MEL-5 = test: Cytotoxicity against human SK-MEL-5 cells after 1 to 11 days by MTT assay; assay type: functional
# DU-145 [12] = test: Cytotoxicity against human DU145 cells assessed as cell growth at 1 mM after 1 to 11 days by MTT assay; assay type: functional; conditions: read-out: Activity
# 786-0 = test: Cytotoxicity against human 786-0 cells assessed as cell growth at 100 uM after 1 to 11 days by MTT assay; assay type: functional; conditions: read-out: Activity
# K562 = test: Cytotoxicity against human K562 cells after 1 to 11 days by MTT assay; assay type: functional
# MOLT-4 [13] = test: Cytotoxicity against human MOLT4 cells after 1 to 11 days by MTT assay; assay type: functional
# UACC-257 = test: Cytotoxicity against human UACC257 cells assessed as cell growth at 1 mM after 1 to 11 days by MTT assay; assay type: functional; conditions: read-out: Activity
# SN12C [14] = test: Cytotoxicity against human SN12C cells assessed as cell growth at 1 uM after 1 to 11 days by MTT assay; assay type: functional; conditions: read-out: Activity
# NCI-H460 = test: Cytotoxicity against human NCI-H460 cells assessed as cell growth at 1 uM after 1 to 11 days by MTT assay; assay type: functional; conditions: read-out: Activity
# UO-31 = test: Cytotoxicity against human UO31 cells assessed as cell growth at 1 mM after 1 to 11 days by MTT assay; assay type: functional; conditions: read-out: Activity
# ACHN = test: Cytotoxicity against human ACHN cells assessed as cell growth at 100 uM after 1 to 11 days by MTT assay; assay type: functional; conditions: read-out: Activity
# COLO 205 = test: Cytotoxicity against human COLO205 cells assessed as cell growth at 0.1 uM after 1 to 11 days by MTT assay; assay type: functional; conditions: read-out: Activity
# Malme-3M = test: Cytotoxicity against human MALME-3M cells assessed as cell growth at 100 uM after 1 to 11 days by MTT assay; assay type: functional; conditions: read-out: Activity
# DU-145 [15] = test: Cytotoxicity against human DU145 cells assessed as cell growth at 0.1 uM after 1 to 11 days by MTT assay; assay type: functional; conditions: read-out: Activity
# HOP-92 = test: Cytotoxicity against human HOP92 cells assessed as cell growth at 1 uM after 1 to 11 days by MTT assay; assay type: functional; conditions: read-out: Activity
# MCF7 [16] = test: Cytotoxicity against human MCF7 cells assessed as cell growth at 100 uM after 1 to 11 days by MTT assay; assay type: functional; conditions: read-out: Activity
# NCI-H522 [17] = test: Cytotoxicity against human NCI-H522 cells assessed as cell growth at 100 uM after 1 to 11 days by MTT assay; assay type: functional; conditions: read-out: Activity
# SN12C [18] = test: Cytotoxicity against human SN12C cells assessed as cell growth at 100 uM after 1 to 11 days by MTT assay; assay type: functional; conditions: read-out: Activity
# MCF7 [19] = test: Cytotoxicity against human MCF7 cells after 1 to 11 days by MTT assay; assay type: functional
# SW-620 = test: Cytotoxicity against human SW620 cells assessed as cell growth at 0.1 uM after 1 to 11 days by MTT assay; assay type: functional; conditions: read-out: Activity
# [20] = Cytotoxicity against human Hs 578T cells after 1 to 11 days by MTT assay; assay type: functional
# MOLT-4 [21] = test: Cytotoxicity against human MOLT4 cells assessed as cell growth at 100 uM after 1 to 11 days by MTT assay; assay type: functional; conditions: read-out: Activity
# A498 [22] = test: Cytotoxicity against human A498 cells assessed as cell growth at 0.1 uM after 1 to 11 days by MTT assay; assay type: functional; conditions: read-out: Activity
# TK-10 [23] = test: Cytotoxicity against human TK10 cells assessed as cell growth at 1 mM after 1 to 11 days by MTT assay; assay type: functional; conditions: read-out: Activity
# HCC 2998 = test: Cytotoxicity against human HCC2998 cells assessed as cell growth at 10 uM after 48 hrs by MTT assay; assay type: functional; conditions: HCC 2998, 48 h, read-out: Activity
# [24] = read-out: LC50 (the source's name)
structure (smiles),measurement,setting,value
O=C1Nc2ncccc2/C1=C1/Nc2ccccc2/C1=N\O,growth at 1000 µM,MCF7 [1],41%
same,growth at 100 µM,A549 [2],15%
same,growth at 1000 µM,MDA-MB-468,13%
same,growth at 1000 µM,OVCAR-4,39%
same,growth at 10 µM,TK-10 [3],91%
same,inhibition,[4],81%
same,growth at 10 µM,SN12C [5],81%
same,growth at 1 µM,NCI-H23,90%
same,growth at 0.1 µM,IGROV-1,102%
same,growth at 1000 µM,A498 [6],43%
same,growth at 0.1 µM,OVCAR-8,79%
same,growth at 0.1 µM,MCF7 [7],98%
same,growth at 10 µM,OVCAR-3,80%
same,growth at 1000 µM,A549 [8],13%
same,growth at 10 µM,SNB-19,94%
same,growth at 1 µM,A549 [9],95%
same,growth at 1000 µM,NCI-H522 [10],50%
same,growth at 10 µM,A498 [11],63%
same,growth at 0.1 µM,HT-29,99%
same,growth at 1000 µM,NCI-H226,13%
same,GI50,SK-MEL-5,9.53 µM
same,TGI,SK-MEL-5,> 100 µM
same,CC50,SK-MEL-5; [24],> 100 µM
same,growth at 1000 µM,DU-145 [12],35%
same,growth at 100 µM,786-0,41%
same,GI50,K562,3.84 µM
same,TGI,K562,> 100 µM
same,CC50,K562; [24],> 100 µM
same,GI50,MOLT-4 [13],2.99 µM
same,TGI,MOLT-4 [13],> 100 µM
same,CC50,MOLT-4 [13]; [24],> 100 µM
same,growth at 1000 µM,UACC-257,60%
same,growth at 1 µM,SN12C [14],89%
same,growth at 1 µM,NCI-H460,105%
same,growth at 1000 µM,UO-31,11%
same,growth at 100 µM,ACHN,21%
same,growth at 0.1 µM,COLO 205,96%
same,growth at 100 µM,Malme-3M,13%
same,growth at 0.1 µM,DU-145 [15],102%
same,growth at 1 µM,HOP-92,81%
same,growth at 100 µM,MCF7 [16],52%
same,growth at 100 µM,NCI-H522 [17],61%
same,growth at 100 µM,SN12C [18],37%
same,GI50,MCF7 [19],15.9 µM
same,TGI,MCF7 [19],> 100 µM
same,CC50,MCF7 [19]; [24],> 100 µM
same,growth at 0.1 µM,SW-620,99%
same,GI50,[20],2.39 µM
same,TGI,[20],> 100 µM
same,CC50,[20]; [24],> 100 µM
same,growth at 100 µM,MOLT-4 [21],26%
same,growth at 0.1 µM,A498 [22],76%
same,growth at 1000 µM,TK-10 [23],14%
O=C1Nc2ncccc2/C1=C1/Nc2ccccc2C1=O,growth at 10 µM,HCC 2998,25.3%
